Laboratory results reported in BindingDB's records for doi:10.1016/j.bmc.2019.06.020 (Shanghai Jiao Tong University, 2019).

Tests used:
[1] = molecular target: T1, Polypeptide N-acetylgalactosaminyltransferase 2 (Homo sapiens, UniProt Q10471); experiment: Binding affinity of human recombinant FLAG-tagged ppGalNAcT2 expressed in HEK293 cells assessed as association rate by SPR analysis; details: read-out: kon (M-1-s-1)
[2] = molecular target: T1, Polypeptide N-acetylgalactosaminyltransferase 2; experiment: Binding affinity of human recombinant FLAG-tagged ppGalNAcT2 expressed in HEK293 cells assessed as dissociation rate by SPR analysis

T1 sequence (Q10471 whole entry): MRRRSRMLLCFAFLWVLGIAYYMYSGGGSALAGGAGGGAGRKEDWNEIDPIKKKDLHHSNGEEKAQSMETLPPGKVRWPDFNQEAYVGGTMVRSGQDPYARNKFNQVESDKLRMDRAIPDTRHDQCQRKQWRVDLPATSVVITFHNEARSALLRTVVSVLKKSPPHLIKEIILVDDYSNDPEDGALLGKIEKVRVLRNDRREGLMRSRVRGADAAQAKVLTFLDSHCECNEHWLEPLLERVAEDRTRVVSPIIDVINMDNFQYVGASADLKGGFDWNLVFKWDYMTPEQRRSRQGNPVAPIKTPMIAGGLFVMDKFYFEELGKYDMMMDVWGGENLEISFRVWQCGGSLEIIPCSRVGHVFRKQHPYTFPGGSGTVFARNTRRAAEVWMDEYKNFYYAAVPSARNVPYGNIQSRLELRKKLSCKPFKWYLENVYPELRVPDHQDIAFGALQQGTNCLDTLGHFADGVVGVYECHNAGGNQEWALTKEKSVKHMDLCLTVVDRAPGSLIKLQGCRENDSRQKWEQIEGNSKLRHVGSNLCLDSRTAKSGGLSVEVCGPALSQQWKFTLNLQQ

Row | Structure (SMILES) | kon [1] | koff [2]
1 | O=c1oc2c(O)c(O)cc3c(=O)oc4c(O)c(O)cc1c4c23 [Elagic Acid] | 2370 M⁻¹ s⁻¹ | 0.000879 s⁻¹
2 | O=C(O)c1cc(O)c(O)c(O)c1 [Gallic Acid, F] | 1450 M⁻¹ s⁻¹ | 0.00134 s⁻¹
3 | O=c1oc2c(O)c(O)ccc2c2cc(O)c(O)cc12 | 3530 M⁻¹ s⁻¹ | 0.00104 s⁻¹
